Assay results: publication PMC12120661, “Synthesis and Biological Evaluation of 4‑(4-Nitrophenyl)‑1H‑1,2,3-triazole Derivatives as Antitrypanosomal Agents” (ACS Omega, 2025)

Tests used:
[1] = tested on: T. cruzi intracellular amastigotes (Colombian strain) in LLC-MK2 cells; experiment: Antiamastigote activity, infection index, treatment after infection, LLC-MK2; assay type: cell-based, Trypanosoma cruzi; settings: for selective index MK2: CC50/IC50, LLC-MK2, treatment after infection; for IC50: Trypanosoma cruzi, LLC-MK2, 48 h, infected LLC-MK2, 48 h treatment after infection; for selectivity indices: stated in text across LLC-MK2 and C2C12, treatment after infection
Protocol: (§1) Considering the dynamics of T. cruzi infection in humans, characterized by an increase in parasitic load through intracellular replication of amastigote forms in various cell types, we evaluated the action of the compounds in LLC-MK2 (epithelial cells) and C2C12 (myoblasts) using an in vitro infection model.
(§2) The antiamastigote activity was assessed by calculating the infection index, defined as the percentage of infected cells multiplied by the mean number of amastigotes per cell. Noninfected control cells were subjected to identical treatment conditions to evaluate the cytotoxicity of the compounds (CC50). This comprehensive approach allowed for the simultaneous assessment of antiparasitic efficacy and compound-induced cytotoxicity, offering valuable insights into their therapeutic potential.
(§3) In the infection plate each well was added 50 μL of cold methanol for cell fixation. The plate was kept at −20 °C for 1 h. After this period, the wells were blocked with 50 μL of PBS 1X-Saponin 0.1 + 10% rabbit serum for 10 min at room temperature. Following, the wells were washed four times with PBS 1X-Saponin 0.1% and 50 μL of the same solution was added to each well, incubating for 20 min at room temperature. Subsequently, 50 μL of PBS 1X-Saponin 0.1% + anti-T. cruzi antibody (from serum of infected patients) at a 1:10 dilution was added, and the plate was incubated for 1 h at room temperature. The wells were then washed four times with PBS 1X-Saponin 0.1%, and 50 μL of PBS 1X-Saponin 0.1% + antihuman IgG-FITC at a 1:200 dilution was added. The plate was incubated wrapped in aluminum foil for 30 min. After incubation, the plate was washed four times with PBS 1X-Saponin 0.1%, and 50 μL of PBS 1X was added to all wells after the final wash. For nuclear staining, the plate, already stained with FITC, was washed three times with PBS 1X, and 200 μL of PBS 1X + 1 μL of iodide per well was added. After staining, the wells were washed again, and 100 μL of PBS 1X was added before imaging.
(§4) The plate was analyzed in the EVOS fluorescence microscope for image acquisition and fluorescence identification, in which the anti-IgG-FITC stains parasite′s membrane in green and iodide stains nuclei in red. On each condition of treatment, 200 cells of 3 wells were evaluated as to the number of infected cells and the number of parasites per cell for calculating the index of infection the IC50 were calculated by Nonlinear regression curves (log[inhibitor] vs normalized response). Selective index was calculated by dividing CC50 per IC50.

[2] = tested on: T. cruzi amastigotes (Colombian strain) in pre-exposed C2C12 cells; experiment: Antiamastigote activity in pretreated (pre-exposed) C2C12 cells; assay type: cell-based, Trypanosoma cruzi; settings: for selective index C2C12: CC50/IC50, C2C12 treated previously to infection; for IC50: Trypanosoma cruzi, C2C12 treated previously to infection
Protocol: (§5) After 24 h, the culture medium was removed and replaced with fresh medium containing cell-derived trypomastigotes (MOI 20:1, Colombian strain) overnight.
as §3, §4

Solubility observations = settings: 2.000 to 0.062 mM, 0.5% DMSO
[3] = tested on: T. cruzi Tulahuen CL2 β-galactosidase strain; experiment: Antitrypanosomal screening, anti-T. cruzi (trypomastigote) activity, CPRG photometric method; assay type: cell-based; settings: Trypanosoma cruzi; Tulahuen CL2 β-galactosidase strain on MRC-5SV2; values in parentheses mean ± SEM of two experiments
Protocol: A preliminary assay was conducted to evaluate the analogs’ in vitro cytotoxicity and antitrypanosomatid activity against T. cruzi Tulahuen strain (Table ). […] However, the promising results of analog 16 encouraged us to conduct more in-depth studies on this compound.
Anti-parasitic assays were conducted following established protocols outlined in earlier literature. In brief, for assessing anti-T. cruzi activity, the Tulahuen CL2 β-galactosidase strain (nifurtimox-sensitive) was employed and maintained on MRC-5SV2 (human lung fibroblast). A total of 4 × 10^3 cells were infected with 4 × 10^4 parasites per well. The synthesized analogs were tested at concentrations ranging from 1.56 to 50.00 μM. Parasite burdens were evaluated after the addition of the substrate CPRG (chlorophenol red ß-D-galactopyranoside). The change in color was measured spectrophotometrically at 540 nm after 4 h of incubation at 37°C. In all assays, parasite growth was compared to untreated-infected controls (100% growth) and noninfected controls (0% growth). Results were expressed as the percentage of parasite reduction at different drug concentrations and used to calculate IC50 values from the dose–response curves.

[4] = Cytotoxicity against primary mouse macrophages; assay type: cell-based; settings: mouse, primary mouse macrophages (PMM)
From the text: 1 In Vitro Anti- T. cruzi (Trypomastigote) Activity and Cytotoxicity Assessment of Hit 1 Analogs ^a | column: PMM CC50 (μM)

[5] = tested on: T. cruzi nitroreductase (TcNTR72); experiment: T. cruzi nitroreductase activity assay (NADH oxidation); settings: 50 μM NADH, 25 °C; for Kobs (12.5 μM): compound 12.5 μM; for Kobs (25 μM): compound 25 μM; for Kobs (50 μM): compound 50 μM; for Kobs (100 μM): compound 100 μM
Protocol: TcNTR72 was expressed, purified, and its activity was tested following previously described protocol. […] This mixture was incubated at room temperature for 5 min. […] All assays were performed in triplicate for each measurement and for each concentration. Benznidazole was used as a control.

[6] = tested on: T. cruzi intracellular amastigotes (Colombian strain) in C2C12 cells; experiment: Antiamastigote activity, infection index, treatment after infection, C2C12; assay type: cell-based, Trypanosoma cruzi; settings: for selective index C2C12: CC50/IC50, C2C12, treatment after infection; for IC50: Trypanosoma cruzi, infected C2C12, 48 h treatment after infection
Protocol: as §1, §2, §3, §4

LLC-MK2 cells = experiment: Cellular viability (MTT), noninfected LLC-MK2; assay type: cell-based; settings: noninfected LLC-MK2, Table 3 (treatment previously to infection); read-out: CC50 non infected MK2
Protocol: as §2
(§6) Following 24 h of treatment, 10 μL of 5 mg/mL of MTT (3-(4,5-dimethylthiazol-2-yl)-2,5-diphenyltetrazolium bromide) was added per well, and absorbance was evaluated in the Eon Microplate Spectrophotometer Reader (BioTek) at 570–690 nm. CC50 were calculated by Nonlinear regression curves (log[inhibitor] vs normalized response).

[7] = Cellular viability (MTT), noninfected LLC-MK2; assay type: cell-based; settings: rhesus monkey, noninfected LLC-MK2 epithelial cells; noninfected LLC-MK2, Table 2 (treatment after infection); read-out: CC50 non infected MK2
Protocol: as §2, §6

C2C12 cells = experiment: Cellular viability (MTT), noninfected C2C12; assay type: cell-based, murine; settings: noninfected C2C12, Table 3 (treatment previously to infection); read-out: CC50 non infected C2C12
Protocol: as §2
(§7) The LLC-MK2 (ATCC CCL-7) cell line of epithelial origin, and C2C12 (ATCC CRL-1772) myoblast cells, derived from murine myoblasts, were maintained in Roswell Park Memorial Institute-RPMI 1640 medium supplemented with L-glutamine, 25 mM HEPES (Corning), 10% (v/v) fetal bovine serum (FBS), and gentamicin (1 μL/mL). […] Once the cells reached 80% confluence, were detached using Trypsin-EDTA and prepared in the subsequent experiments.
as §6

[8] = Cellular viability (MTT), noninfected C2C12; assay type: cell-based, murine; settings: mouse, noninfected C2C12 myoblast cells; noninfected C2C12, Table 2 (treatment after infection); read-out: CC50 non infected C2C12
Protocol: as §2, §7, §6

[9] = Preliminary cytotoxicity assay, resazurin; assay type: cell-based; settings: MRC-5SV2 lung fibroblast cells; human MRC-5 cell line, 3 days incubation
Protocol: MRC-5SV2 cell cytotoxicity was assessed following the methodology outlined in earlier literature. Briefly, cells at a concentration of 1.5 × 10^5 cells/mL were cultured with compound dilutions at 37 °C and 5% CO2. Cell growth was compared to untreated-control wells (100% cell growth) and medium-control wells (0% cell growth). After 3 days of incubation, cell viability was fluorometrically assessed following the addition of 50-μL resazurin per well. Fluorescence was measured after 4 h at 37 °C (λex 550 nm, λem 590 nm). The results were expressed as the percentage reduction in cell growth/viability compared to control wells, and an IC50 value was determined.

[10] = tested on: T. cruzi amastigotes (Colombian strain) in pre-exposed LLC-MK2 cells; experiment: Antiamastigote activity in pretreated (pre-exposed) LLC-MK2 cells; assay type: cell-based, Trypanosoma cruzi; settings: for selective index MK2: CC50/IC50, LLC-MK2 treated previously to infection; for IC50: Trypanosoma cruzi, LLC-MK2 treated previously to infection
Protocol: as §5, §3, §4

[11] = molecular target: T1, Recombinant trans-sialidase from T. cruzi (TcTS) (Trypanosoma cruzi, UniProt Q26966); experiment: Continuous fluorimetric TcTS inhibition (MuNANA hydrolysis); assay type: biochemical
T1 construct: A truncated recombinant TcTs, containing the enzyme’s catalytic N-terminal domain, was used; made in house
T1 sequence (Q26966 entry or part of it): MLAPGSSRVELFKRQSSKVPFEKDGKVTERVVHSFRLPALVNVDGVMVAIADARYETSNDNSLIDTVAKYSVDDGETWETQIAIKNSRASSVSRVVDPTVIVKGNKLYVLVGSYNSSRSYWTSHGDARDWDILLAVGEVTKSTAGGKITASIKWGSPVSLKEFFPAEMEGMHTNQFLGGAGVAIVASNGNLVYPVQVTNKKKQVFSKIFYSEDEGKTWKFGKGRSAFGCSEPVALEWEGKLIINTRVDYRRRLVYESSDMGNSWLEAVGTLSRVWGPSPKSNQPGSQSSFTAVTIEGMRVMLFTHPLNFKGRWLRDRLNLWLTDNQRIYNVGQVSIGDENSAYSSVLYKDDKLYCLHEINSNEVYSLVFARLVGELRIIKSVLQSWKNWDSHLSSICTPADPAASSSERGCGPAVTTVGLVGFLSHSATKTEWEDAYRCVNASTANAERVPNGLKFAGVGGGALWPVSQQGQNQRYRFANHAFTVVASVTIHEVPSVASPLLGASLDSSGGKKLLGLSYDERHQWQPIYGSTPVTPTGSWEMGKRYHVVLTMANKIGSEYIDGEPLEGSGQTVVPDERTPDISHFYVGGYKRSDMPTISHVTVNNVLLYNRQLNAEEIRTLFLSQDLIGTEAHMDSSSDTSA
Protocol: Although the main reaction catalyzed by TcTS involves the transfer of host sialic acids to β-galactose acceptors found in parasite surface mucins, a residual hydrolase activity is also present and was utilized to screen a small library of TcTS inhibitors.
A truncated recombinant TcTs, containing the enzyme’s catalytic N-terminal domain, was used. The production and purification of TcTs were performed following previously described protocols. The continuous fluorimetric TcTS assay was conducted in 96-well plates containing phosphate buffer solution at pH 7.4 (25 μL), recombinant enzyme solution (25 μL) and inhibitor solution (25 μL). […] The enzyme activity was measured by calculating the slope of the curve for each concentration of the test compound. Pyridoxal phosphate was used as the inhibition control at a concentration of 1 mM. The IC50 value was determined using the log(inhibitor) vs normalized response–variable slope model in GraphPad Prism version 10.0.0 for Windows, GraphPad Software, Boston, Massachusetts (www.graphpad.com).

[12] = previous work of the group; cited from earlier work
[13] = tested on: trypomastigotes forms of T. cruzi Tulahuen strain (LacZ); design: method as in de Andrade et al., 2015; settings: previous work of the group; ref de Andrade et al., 2015; read-out: IC50 against trypomastigotes forms of T. cruzi Tulahuen strain (LacZ); cited from earlier work

For CC(=O)OC[C@H]1O[C@@H](n2cc(-c3ccc([N+](=O)[O-])cc3)nn2)[C@H](OC(C)=O)[C@@H](OC(C)=O)[C@H]1OC(C)=O [Compound 16, (2R,3S,4S,5R,6R)-2-(Acetoxymethyl)-6-(4-(4-nitrophenyl)-1H-1,2,3-triazol-1-yl)tetrahydro-2H-pyran-3,4,5-triyl Triacetate], the “selective index MK2” value [1] was 484.3, the IC50 [1] was 0.16 ± 0.02 µM and the selectivity indices [1] was “exceeding 400”. The “selective index C2C12” value [2] was 141.5, the IC50 [2] was 0.56 ± 0.09 µM and the “solubility in the TcTS assay medium” value (Solubility observations) was “low solubility in the medium”. The IC50 [3] was 6 µM, the CC50 [4] was greater than 50 µM and the “Kobs (12.5 μM)” value [5] was 0.02 ± 0.02 s^–1. The “Kobs (25 μM)” value [5] was 0.06 ± 0.01 s^–1, the “Kobs (50 μM)” value [5] was 0.07 ± 0.01 s^–1 and the “Kobs (100 μM)” value [5] was 0.07 ± 0.01 s^–1. For the same molecule, the “selective index C2C12” value [6] was 621.1, the IC50 [6] was 0.13 ± 0.01 µM and the CC50 (LLC-MK2 cells) was greater than 80 µM. The CC50 at 24 h [7] was greater than 80 µM, the CC50 (C2C12 cells) was greater than 80 µM and the CC50 at 24 h [8] was greater than 80 µM. The CC50 at 3 days [9] was greater than 50 µM, the “selective index MK2” value [10] was 124.9 and the IC50 [10] was 0.6 ± 0.2 µM.
In the case of O=[N+]([O-])c1ccc(-c2cn([C@@H]3O[C@H](CO)[C@H](O)[C@H](O)[C@H]3O)nn2)cc1 [Compound 19, (2R,3R,4S,5R,6R)-2-(Hydroxymethyl)-6-(4-(4-nitrophenyl)-1H-1,2,3-triazol-1-yl)tetrahydro-2H-pyran-3,4,5-triol], the “selective index MK2” value [1] is reported as 782.8, the IC50 [1] is reported as 0.1 ± 0.04 µM and the selectivity indices [1] is reported as “exceeding 400”. The “selective index C2C12” value [2] was 115.6, the IC50 [2] was 0.7 ± 0.3 µM and the “Kobs (12.5 μM)” value [5] was 0.03 ± 0.01 s^–1. For the same molecule, the “Kobs (25 μM)” value [5] was 0.03 ± 0.01 s^–1, the “Kobs (50 μM)” value [5] was 0.04 ± 0.02 s^–1 and the “Kobs (100 μM)” value [5] was 0.04 ± 0.01 s^–1. For the same molecule, the “selective index C2C12” value [6] was 677.4, the IC50 [6] was 0.11 ± 0.02 µM and the IC50 [11] was 1100 ± 100 µM. It also gave a CC50 (LLC-MK2 cells) greater than 80 µM, a CC50 at 24 h [7] greater than 80 µM and a CC50 (C2C12 cells) greater than 80 µM. For the same molecule, the CC50 at 24 h [8] was greater than 80 µM, the “selective index MK2” value [10] was 39.4 and the IC50 [10] was 2 ± 0.2 µM.
In the case of O=C(Cn1cc(-c2ccc([N+](=O)[O-])cc2)nn1)NCc1ccccc1 [hit 1], the solubility in water [12] is listed as “low solubility in water” and the IC50 [13] is listed as 7 µM.
